Here are results for 22 compounds from patent US20230103791A1 (GLAXOSMITHKLINE INTELLECTUAL PROPERTY DEVELOPMENT LIMITED, priority 2019, published 2023).

The target of the experiment is T1, human Nav1.8 (Homo sapiens, UniProt Q9Y5Y9).
T1 construct: expressed in transfected cells; host or cells: HEK293 (HEK293-Nav1.8)
T1 sequence (Q9Y5Y9 whole entry): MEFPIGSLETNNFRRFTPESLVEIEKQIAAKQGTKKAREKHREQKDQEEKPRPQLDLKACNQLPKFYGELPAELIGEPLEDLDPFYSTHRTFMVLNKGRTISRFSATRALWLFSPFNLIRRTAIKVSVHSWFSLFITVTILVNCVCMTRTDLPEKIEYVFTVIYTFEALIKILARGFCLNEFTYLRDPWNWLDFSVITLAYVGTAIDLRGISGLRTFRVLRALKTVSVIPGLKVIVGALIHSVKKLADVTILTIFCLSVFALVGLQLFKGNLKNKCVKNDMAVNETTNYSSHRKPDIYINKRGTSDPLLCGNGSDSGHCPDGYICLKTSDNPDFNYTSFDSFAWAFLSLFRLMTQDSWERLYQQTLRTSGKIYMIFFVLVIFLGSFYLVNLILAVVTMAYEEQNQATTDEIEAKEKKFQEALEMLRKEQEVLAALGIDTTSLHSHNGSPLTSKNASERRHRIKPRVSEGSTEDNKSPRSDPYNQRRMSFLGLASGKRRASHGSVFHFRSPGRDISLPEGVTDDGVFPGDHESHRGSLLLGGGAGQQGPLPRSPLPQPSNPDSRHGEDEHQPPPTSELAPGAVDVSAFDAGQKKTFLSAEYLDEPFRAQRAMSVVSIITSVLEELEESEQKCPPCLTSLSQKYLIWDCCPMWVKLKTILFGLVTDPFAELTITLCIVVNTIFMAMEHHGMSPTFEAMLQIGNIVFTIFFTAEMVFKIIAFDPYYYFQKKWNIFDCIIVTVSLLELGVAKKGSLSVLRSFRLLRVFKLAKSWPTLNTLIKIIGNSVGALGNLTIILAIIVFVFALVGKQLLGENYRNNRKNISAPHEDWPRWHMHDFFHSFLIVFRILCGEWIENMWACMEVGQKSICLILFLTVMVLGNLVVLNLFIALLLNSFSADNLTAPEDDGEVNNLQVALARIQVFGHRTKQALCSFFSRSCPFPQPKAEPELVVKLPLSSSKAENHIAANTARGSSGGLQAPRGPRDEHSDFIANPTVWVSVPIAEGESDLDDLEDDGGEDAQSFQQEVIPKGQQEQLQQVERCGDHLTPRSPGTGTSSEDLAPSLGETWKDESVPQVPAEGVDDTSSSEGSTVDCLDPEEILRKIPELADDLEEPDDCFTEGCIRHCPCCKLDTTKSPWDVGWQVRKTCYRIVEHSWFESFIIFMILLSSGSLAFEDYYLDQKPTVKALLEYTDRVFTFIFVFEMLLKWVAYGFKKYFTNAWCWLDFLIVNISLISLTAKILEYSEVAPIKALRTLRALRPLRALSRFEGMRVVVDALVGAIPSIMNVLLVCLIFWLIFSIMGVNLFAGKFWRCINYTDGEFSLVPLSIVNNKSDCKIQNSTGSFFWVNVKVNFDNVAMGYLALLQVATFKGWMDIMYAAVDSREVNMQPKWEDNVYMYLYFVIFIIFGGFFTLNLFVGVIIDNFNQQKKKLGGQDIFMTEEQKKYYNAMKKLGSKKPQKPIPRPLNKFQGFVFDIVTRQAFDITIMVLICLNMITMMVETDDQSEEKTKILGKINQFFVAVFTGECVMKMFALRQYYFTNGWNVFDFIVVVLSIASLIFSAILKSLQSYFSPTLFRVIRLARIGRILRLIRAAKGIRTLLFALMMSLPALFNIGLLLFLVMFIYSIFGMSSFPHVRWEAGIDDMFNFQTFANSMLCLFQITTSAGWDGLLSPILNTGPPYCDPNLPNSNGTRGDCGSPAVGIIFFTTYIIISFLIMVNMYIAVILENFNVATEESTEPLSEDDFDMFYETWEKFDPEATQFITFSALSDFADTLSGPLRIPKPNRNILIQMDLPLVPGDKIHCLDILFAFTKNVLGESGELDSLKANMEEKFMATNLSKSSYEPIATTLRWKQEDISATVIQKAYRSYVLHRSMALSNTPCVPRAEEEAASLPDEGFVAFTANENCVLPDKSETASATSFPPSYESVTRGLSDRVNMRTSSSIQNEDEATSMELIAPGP
T1 sequence (Q07699 19-218 partner): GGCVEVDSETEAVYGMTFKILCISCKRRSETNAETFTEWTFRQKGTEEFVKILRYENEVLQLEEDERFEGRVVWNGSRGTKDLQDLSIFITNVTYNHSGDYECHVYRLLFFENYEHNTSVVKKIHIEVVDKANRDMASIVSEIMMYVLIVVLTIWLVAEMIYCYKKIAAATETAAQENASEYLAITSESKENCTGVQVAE
The experiment in a line: Nav1.8 sodium channels assay, QPatch 48 HTX electrophysiology in HEK293-Nav1.8 cells. Format: cell-based. The note with it: at least one set of experimental runs; read-out: average pIC50 value against Nav1.8 (converted). An outline of the steps:
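HEK293 cells co-expressing human Nav1.8, Navβ1 and TREK1 were voltage-clamped on QPatch 48 HTX. The V1/2 protocol ran at 0.07 Hz: hold −100 mV, 20 ms to 0 mV, 8 s at −46 mV, 20 ms at −100 mV, then 20 ms at 0 mV (P2). P2 current was fitted over 6-8 concentrations for IC50, with vehicle wells used to correct for run-down.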
In general terms: Patch clamp records ionic current or voltage across a cell membrane.
For `CCc1[nH]c(=O)ccc1N1CN(c2ccc(F)cc2C)c2ccc(Cl)cc2C1=O` [Example 106, 6-chloro-3-(2-ethyl-6-oxo-1,6-dihydropyridin-3-yl)-1-(4-fluoro-2-methylphenyl)-2,3-dihydroquinazolin-4(1H)-one], the IC50 was ≤ 100 nM.
With `Cc1cc(F)ccc1N1CN(c2ccc(=O)[nH]c2C)C(=O)c2cc(C(F)(F)F)c(F)cc21` [Example 107, 7-fluoro-1-(4-fluoro-2-methylphenyl)-3-(2-methyl-6-oxo-1,6-dihydropyridin-3-yl)-6-(trifluoromethyl)-2,3-dihydroquinazolin-4(1H)-one] the figure was ≤ 100 nM; with `Cc1cc(F)ccc1N1CN(c2ccc(=O)[nH]c2C)C(=O)c2c1ccc(C(F)(F)F)c2F` [Example 108, 5-fluoro-1-(4-fluoro-2-methylphenyl)-3-(2-methyl-6-oxo-1,6-dihydropyridin-3-yl)-6-(trifluoromethyl)-2,3-dihydroquinazolin-4(1H)-one], ≤ 100 nM; with `Cc1cc(F)ccc1N1CN(c2ccc(=O)[nH]c2C)C(=O)c2cc(F)c(Cl)cc21` [Example 109, 7-chloro-6-fluoro-1-(4-fluoro-2-methylphenyl)-3-(2-methyl-6-oxo-1,6-dihydropyridin-3-yl)-2,3-dihydroquinazolin-4(1H)-one], ≤ 100 nM.
Turning to `Cc1cc(F)ccc1N1CN(c2ccc(=O)[nH]c2C)C(=O)c2cc(F)c(C(F)(F)F)cc21` [Example 110, 6-fluoro-1-(4-fluoro-2-methylphenyl)-3-(2-methyl-6-oxo-1,6-dihydropyridin-3-yl)-7-(trifluoromethyl)-2,3-dihydroquinazolin-4(1H)-one], the IC50 is ≤ 100 nM.
Then `Cc1cc(F)ccc1N1CN(c2ccc(=O)[nH]c2C)C(=O)c2cc(C(F)(F)F)c(C#N)cc21` [Example 111, 1-(4-fluoro-2-methylphenyl)-3-(2-methyl-6-oxo-1,6-dihydropyridin-3-yl)-4-oxo-6-(trifluoromethyl)-1,2,3,4-tetrahydroquinazoline-7-carbonitrile], with ≤ 100 nM; and `Cc1cc(F)ccc1N1CN(c2ccc(=O)[nH]c2C)C(=O)c2cc(C#N)c(OC(F)(F)F)cc21` [Example 112, 1-(4-fluoro-2-methylphenyl)-3-(2-methyl-6-oxo-1,6-dihydropyridin-3-yl)-4-oxo-7-(trifluoromethoxy)-1,2,3,4-tetrahydroquinazoline-6-carbonitrile], with ≤ 100 nM.
Then `Cc1cc(F)c(F)cc1N1CN(c2ccc(=O)[nH]c2C)C(=O)c2cc(C(F)(F)F)ccc21` [Example 113, 1-(4,5-difluoro-2-methylphenyl)-3-(2-methyl-6-oxo-1,6-dihydropyridin-3-yl)-6-(trifluoromethyl)-2,3-dihydroquinazolin-4(1H)-one], with 126 to 631 nM; and `Cc1[nH]c(=O)ccc1N1CN(c2ccc(F)cc2C(C)(C)C)c2cc(C(F)(F)F)ccc2C1=O` [Example 114, 1-(2-(tert-butyl)-4-fluorophenyl)-3-(2-methyl-6-oxo-1,6-dihydropyridin-3-yl)-7-(trifluoromethyl)-2,3-dihydroquinazolin-4(1H)-one], with ≤ 100 nM; and `Cc1cc(F)ccc1N1CN(c2cnc(=O)[nH]c2C)C(=O)c2ccc(C(F)(F)F)cc21` [Example 115, 1-(4-fluoro-2-methylphenyl)-3-(6-methyl-2-oxo-1,2-dihydropyrimidin-5-yl)-7-(trifluoromethyl)-2,3-dihydroquinazolin-4(1H)-one], with ≤ 100 nM.
With `CCc1cc(F)ccc1N1CN(c2ccc(=O)[nH]c2C)C(=O)c2cc(F)ccc21` [Example 116, 1-(2-ethyl-4-fluorophenyl)-6-fluoro-3-(2-methyl-6-oxo-1,6-dihydropyridin-3-yl)-2,3-dihydroquinazolin-4(1H)-one] the figure was ≤ 100 nM.
Turning to `Cc1cc(C#N)ccc1N1CN(c2ccc(=O)[nH]c2C)C(=O)c2cc(Cl)ccc21` [Example 117, 4-(6-chloro-3-(2-methyl-6-oxo-1,6-dihydropyridin-3-yl)-4-oxo-3,4-dihydroquinazolin-1(2H)-yl)-3-methylbenzonitrile], the IC50 was ≤ 100 nM.
With `Cc1ccc(F)cc1N1CN(c2ccc(=O)[nH]c2C)C(=O)c2cc(C(F)(F)F)ccc21` [Example 118, 1-(5-fluoro-2-methylphenyl)-3-(2-methyl-6-oxo-1,6-dihydropyridin-3-yl)-6-(trifluoromethyl)-2,3-dihydroquinazolin-4(1H)-one] the figure was 126 to 631 nM; with `Cc1cc(OC(F)(F)F)ccc1N1CN(c2ccc(=O)[nH]c2)C(=O)c2cc(C(F)(F)F)cnc21` [Example 119, 1-(2-methyl-4-(trifluorometh-oxy)phenyl)-3-(6-oxo-1,6-dihydropyridin-3-yl)-6-(trifluoromethyl)-2,3-dihydropyrido[2,3-d]pyrimidin-4(1H)-one], 126 to 631 nM.
Then `Cc1[nH]c(=O)ccc1N1CN(c2cccc(F)c2C)c2ccc(C(F)(F)F)cc2C1=O` [Example 120, 1-(3-fluoro-2-methylphenyl)-3-(2-methyl-6-oxo-1,6-dihydropyridin-3-yl)-6-(trifluoromethyl)-2,3-dihydroquinazolin-4(1H)-one], with ≤ 100 nM; and `Cc1cc(F)cc(F)c1N1CN(c2ccc(=O)[nH]c2C)C(=O)c2cc(C(F)(F)F)ccc21` [Example 121, 1-(2,4-difluoro-6-methylphenyl)-3-(2-methyl-6-oxo-1,6-dihydropyridin-3-yl)-6-(trifluoromethyl)-2,3-dihydroquinazolin-4(1H)-one], with 126 to 631 nM.
With `Cc1[nH]c(=O)ccc1N1CN(c2ccc(F)cc2C(C)C)c2nc(C(F)F)ccc2C1=O` [Example 122, 7-(difluoromethyl)-1-(4-fluoro-2-isopropylphenyl)-3-(2-methyl-6-oxo-1,6-dihydropyridin-3-yl)-2,3-dihydropyrido[2,3-d]pyrimidin-4(1H)-one] the figure was ≤ 100 nM; with `Cc1cc(C#N)ccc1N1CN(c2ccc(=O)[nH]c2C)C(=O)c2cc(OC(F)(F)F)ccc21` [Example 123, 3-methyl-4-(3-(2-methyl-6-oxo-1,6-dihydropyridin-3-yl)-4-oxo-6-(trifluoromethoxy)-3,4-dihydroquinazolin-1(2H)-yl)benzonitrile], ≤ 100 nM.
On to `Cc1cc(F)ccc1N1CN(c2ccc(=O)[nH]c2C)C(=O)c2cccc(Cl)c21` [Example 124, 8-chloro-1-(4-fluoro-2-methylphenyl)-3-(2-methyl-6-oxo-1,6-dihydropyridin-3-yl)-2,3-dihydroquinazolin-4(1H)-one], for which the IC50 was 794 to 7940 nM.
With `Cc1cc(F)ccc1N1CN(c2ccc(=O)[nH]c2C)C(=O)c2cccc(C)c21` [Example 125, 1-(4-fluoro-2-methylphenyl)-8-methyl-3-(2-methyl-6-oxo-1,6-dihydropyridin-3-yl)-2,3-dihydroquinazolin-4(1H)-one] the figure was 794 to 7940 nM; with `COc1ccc(N2CN(c3ccc(=O)[nH]c3C)C(=O)c3cc(C(F)(F)F)ccc32)c(C)c1` [Example 126, 1-(4-methoxy-2-methylphenyl)-3-(2-methyl-6-oxo-1,6-dihydropyridin-3-yl)-6-(trifluoromethyl)-2,3-dihydroquinazolin-4(1H)-one], ≤ 100 nM.
With `Cc1cc(O)ccc1N1CN(c2ccc(=O)[nH]c2C)C(=O)c2cc(C(F)(F)F)ccc21` [Example 127, 1-(4-hydroxy-2-methylphenyl)-3-(2-methyl-6-oxo-1,6-dihydropyridin-3-yl)-6-(trifluoromethyl)-2,3-dihydroquinazolin-4(1H)-one] the figure was 126 to 631 nM.
